Assay results published in patent US9085589B2, “Cephem derivative” (SHIONOGI & CO., LTD., priority 2010, dated 2015).
≈ marks a conversion by molar mass, not a printed value.

What was measured:
Assay type in all cases: cell-based
[1] = test system: Acinetobacter baumannii SR24396; test: MIC, agar plate incubation (Japan Society for Chemotherapy standard method); conditions: A. baumannii SR24396, sensitive disc medium, 1000 cfu/spot, read-out: Minimum Inhibitory Concentration (MIC)
Experimental: (§1) (Test Methods for Compounds (I-1) to (I-9), (I-16), (I-17) and (I-23))
(§2) (Microbe/Strain Species Nos. 1 to 4 and 6 to 8):
(§3) Measurement of Minimum Inhibitory Concentration (MIC: microgram/ml) was conducted according to the standard method of the Japan Society for Chemotherapy, and the amount of bacteria for inoculation was 1000 cfu/spot, and sensitive disc medium was used as the test medium, and conducted using agar plate incubation.

[2] = test system: Klebsiella pneumoniae ATCC 700603; test: as above; conditions: K. pneumoniae ATCC700603, SHV-18, ESBL producing strain, sensitive disc medium, 1000 cfu/spot, read-out: Minimum Inhibitory Concentration (MIC)
Experimental: as §1, §2, §3

[3] = test system: Pseudomonas aeruginosa SR24; test: as above; conditions: P. aeruginosa SR24, ceftazidime sensitive strain, sensitive disc medium, 1000 cfu/spot, read-out: Minimum Inhibitory Concentration (MIC)
Experimental: as §1, §2, §3

[4] = test system: Pseudomonas aeruginosa SR27060; test: as above; conditions: P. aeruginosa SR27060, IMP-1, MBL producing (carbapenem resistant) strain, sensitive disc medium, 1000 cfu/spot, read-out: Minimum Inhibitory Concentration (MIC)
Experimental: as §1, §2, §3

[5] = test system: Streptococcus pneumoniae Type I; test: as above; conditions: S. pneumoniae Type I, PSSP, sensitive disc medium, 1000 cfu/spot, read-out: Minimum Inhibitory Concentration (MIC)
Experimental: as §1, §2, §3

[6] = test system: Stenotrohomonas maltophilia SR21970; test: MIC, agar plate incubation (CLSI), Mueller-Hinton agar; conditions: Stenotrophomonas maltophilia, S. maltophilia SR21970, L-1, MBL producing (carbapenem resistant) strain, 10000 cfu/spot, read-out: Minimum Inhibitory Concentration (MIC)
Experimental: as §1
(Microbe/Strain Species No. 5):
Measurement of Minimum Inhibitory Concentration (MIC, microgram/ml) was conducted according to the CLSI (Clinical and Laboratory Standards Institute) and the amount of bacteria for inoculation was 10000 cfu/spot, and Mueller-Hinton agar medium was used as the test medium, and conducted using agar plate incubation.

[7] = test system: Acinetobacter baumannii SR24396; test: MIC, broth microdilution (CLSI), medium with human Apo-transferrin; conditions: A. baumannii SR24396, cation adjusted Mueller-Hinton + human Apo-transferrin, 5×10^5 cfu/mL, read-out: Minimum Inhibitory Concentration (MIC)
Experimental: (§4) (Test Methods for Compounds (I-10) to (I-15))
(§5) (Microbe/Strain Species Nos. 1 to 5):
(§6) Measurement of Minimum Inhibitory Concentration (MIC, microgram/ml) was conducted according to the CLSI (Clinical and Laboratory Standards Institute) and the amount of bacteria for inoculation was 5×10^5 cfu/mL, and cation adjusted Mueller-Hinton liquid medium added human Apo-tranferrin was used as the test medium, and conducted using broth microdilution method.
(§7) (Test Methods for Compounds (I-18) to (I-22))

[8] = test system: Klebsiella pneumoniae ATCC 700603; test: as above; conditions: K. pneumoniae ATCC700603, SHV-18, ESBL producing strain, cation adjusted Mueller-Hinton + human Apo-transferrin, 5×10^5 cfu/mL, read-out: Minimum Inhibitory Concentration (MIC)
Experimental: as §4, §5, §6, §7

[9] = test system: Pseudomonas aeruginosa SR24; test: as above; conditions: P. aeruginosa SR24, ceftazidime sensitive strain, cation adjusted Mueller-Hinton + human Apo-transferrin, 5×10^5 cfu/mL, read-out: Minimum Inhibitory Concentration (MIC)
Experimental: as §4, §5, §6, §7

[10] = test system: Pseudomonas aeruginosa SR27060; test: as above; conditions: P. aeruginosa SR27060, IMP-1, MBL producing (carbapenem resistant) strain, cation adjusted Mueller-Hinton + human Apo-transferrin, 5×10^5 cfu/mL, read-out: Minimum Inhibitory Concentration (MIC)
Experimental: as §4, §5, §6, §7

[11] = test system: Stenotrohomonas maltophilia SR21970; test: as above; conditions: Stenotrophomonas maltophilia, S. maltophilia SR21970, L-1, MBL producing (carbapenem resistant) strain, cation adjusted Mueller-Hinton + human Apo-transferrin, 5×10^5 cfu/mL, read-out: Minimum Inhibitory Concentration (MIC)
Experimental: as §4, §5, §6, §7

[12] = test system: Staphylococcus aureus Smith; test: MIC, agar plate incubation (Japan Society for Chemotherapy standard method); conditions: S. aureus Smith, MSSA, sensitive disc medium, 1000 cfu/spot, read-out: Minimum Inhibitory Concentration (MIC)
Experimental: as §1, §2, §3

[13] = test system: Streptococcus pneumoniae SR16675; test: as above; conditions: S. pneumoniae SR16675, PRSP, sensitive disc medium, 1000 cfu/spot, read-out: Minimum Inhibitory Concentration (MIC)
Experimental: as §1, §2, §3

| MIC [1] | MIC [2] | MIC [3] | MIC [4] | MIC [5] | MIC [6] | MIC [12] | MIC [13] | Structure (SMILES) | MIC [7] | MIC [8] | MIC [9] | MIC [10] | MIC [11] |
| --- | --- | --- | --- | --- | --- | --- | --- | --- | --- | --- | --- | --- | --- |
| 0.25 µg/mL | 0.5 µg/mL | 0.25 µg/mL | 2 µg/mL | 4 µg/mL | 4 µg/mL | – | – | Nc1nc(C(=CCC(=O)[O-])C(=O)N[C@@H]2C(=O)N3C(C(=O)[O-])=C(C[N+]4(CCNC(=O)c5ccc(O)c(O)c5Cl)CCCC4)CS[C@H]23)cs1.[Na+] [Compound I-8] | – | – | – | – | – |
| 1 µg/mL (≈ 1.31 µM) | 4 µg/mL (≈ 5.23 µM) | 0.25 µg/mL (≈ 0.327 µM) | 1 µg/mL (≈ 1.31 µM) | – | 2 µg/mL (≈ 2.62 µM) | – | – | CC(C)(O/N=C(\C(=O)NC1C(=O)N2C(C(=O)O)=C(C[N+]3(CCNC(=O)c4ccc(O)c(O)c4Cl)CCCC3)CS[C@H]12)c1ccc(O)c(F)c1)C(=O)[O-] (some centres unmarked) [Compound I-17] | – | – | – | – | – |

The remaining lines, values behind:

| Structure (SMILES) | MIC [1] | MIC [2] | MIC [3] | MIC [4] | MIC [5] | MIC [6] | MIC [12] | MIC [13] | MIC [7] | MIC [8] | MIC [9] | MIC [10] | MIC [11] |
| --- | --- | --- | --- | --- | --- | --- | --- | --- | --- | --- | --- | --- | --- |
| CCN1CCN(C(=O)N[C@@H](C(=O)N[C@@H]2C(=O)N3C(C(=O)[O-])=C(C[N@+]4(C)[C@@H]5CC[C@H]4C[C@@H](NC(=O)c4ccc(O)c(O)c4Cl)C5)CS[C@H]23)c2ccccc2)C(=O)C1=O [Compound I-18] | – | – | – | – | – | – | – | – | 0.25 µg/mL | 2 µg/mL | 0.125 µg/mL | 2 µg/mL | 4 µg/mL |
| CCN1CCN(C(=O)N[C@@H](C(=O)N[C@@H]2C(=O)N3C(C(=O)[O-])=C(C[N+]4(CCNC(=O)c5ccc(O)c(O)c5Cl)CCCC4)CS[C@H]23)c2ccccc2)C(=O)C1=O [Compound I-1] | 0.5 µg/mL (≈ 0.626 µM) | 1 µg/mL (≈ 1.25 µM) | 0.063 µg/mL (≈ 0.0789 µM) | 0.5 µg/mL (≈ 0.626 µM) | 0.5 µg/mL (≈ 0.626 µM) | 2 µg/mL (≈ 2.51 µM) | 4 µg/mL (≈ 5.01 µM) | 8 µg/mL (≈ 10 µM) | – | – | – | – | – |
| CC(C)(O/N=C(\C(=O)N[C@@H]1C(=O)N2C(C(=O)[O-])=C(C[N@+]34CCC[C@H]3CN(C(=O)c3ccc(O)c(O)c3Cl)CC4)CS[C@H]12)c1ccc(O)cc1)C(=O)[O-].[Na+] [Compound I-15] | – | – | – | – | – | – | – | – | 4 µg/mL | 32 µg/mL | 0.5 µg/mL | 2 µg/mL | 0.5 µg/mL |
| CCN1CCN(C(=O)N[C@@H](C(=O)N[C@@H]2C(=O)N3C(C(=O)[O-])=C(C[N+]45CCC(CNC(=O)c6ccc(O)c(O)c6Cl)(CC4)CC5)CO[C@H]23)c2ccccc2)C(=O)C1=O [Compound I-23] | 1 µg/mL (≈ 1.24 µM) | 16 µg/mL (≈ 19.8 µM) | 0.5 µg/mL (≈ 0.619 µM) | 4 µg/mL (≈ 4.95 µM) | 0.5 µg/mL (≈ 0.619 µM) | > 64 µg/mL | – | – | – | – | – | – | – |
